Assay results published in ChEMBL document CHEMBL6153083, “Synthesis, Structural Modification, and Antismall Cell Lung Cancer Activity of 3-Arylisoquinolines with Dual Inhibitory Activity on Topoisomerase I and II” (J Med Chem, 2025).

Experiments:
[1] = tested on: NCI-H82; assay: Antiproliferative activity against human NCI-H82 cells incubated for 72 hrs; format: functional, cell-based; conditions: NCI-H82, 72 h
[2] = tested on: SHP77; assay: Antiproliferative activity against human SHP77 cells incubated for 72 hrs; format: functional, cell-based; conditions: SHP77, 72 h
[3] = tested on: NCI-H209; assay: Antiproliferative activity against human NCI-H209 cells incubated for 72 hrs; format: functional, cell-based; conditions: NCI-H209, 72 h
[4] = tested on: NCI-H1048; assay: Antiproliferative activity against human NCI-H1048 cells incubated for 72 hrs; format: functional, cell-based; conditions: NCI-H1048, 72 h
[5] = tested on: NCI-H446; assay: Antiproliferative activity against human NCI-H446 cells incubated for 72 hrs; format: functional, cell-based; conditions: NCI-H446, 72 h
[6] = tested on: NCI-H146; assay: Antiproliferative activity against human NCI-H146 cells incubated for 72 hrs; format: functional, cell-based; conditions: NCI-H146, 72 h
[7] = Antiproliferative activity against human NCI-H196 cells incubated for 72 hrs; format: functional, cell-based; conditions: NCI-H196, 72 h
[8] = Antiproliferative activity against human BEAS-2B cells incubated for 72 hrs; format: toxicity, cell-based
[9] = Antiproliferative activity against human L02 cells incubated for 72 hrs; format: toxicity, cell-based

Q: Which results are given for `O=C1CCC2CCN(Cc3cc4c(cc3-c3cc5ccc6c(c5cn3)OCO6)OCO4)CN12` (configuration not stated)?
A: IC50 [1]: 73.2 µM; IC50 [2]: 36 µM; IC50 [3]: > 100 µM; IC50 [4]: > 100 µM; IC50 [5]: 49.6 µM; IC50 [6]: 63 µM; IC50 [7]: 78.2 µM; IC50 at 72 h [8]: > 100 µM; IC50 at 72 h [9]: 84.6 µM

Q: Which results are given for `c1c(CN2CC3(CCC3)C2)c(-c2cc3ccc4c(c3cn2)OCO4)cc2c1OCO2`?
A: IC50 [1]: 58.1 µM; IC50 [2]: 37.6 µM; IC50 [3]: 50.2 µM; IC50 [4]: 30.5 µM; IC50 [5]: 24.4 µM; IC50 [6]: > 100 µM; IC50 [7]: 30.9 µM; IC50 at 72 h [8]: 30.4 µM; IC50 at 72 h [9]: > 100 µM

Q: Which IC50 [1] does the source give for `OC1CCCN(Cc2cc3c(cc2-c2cc4ccc5c(c4cn2)OCO5)OCO3)CC1` (configuration not stated) here?
A: 30 µM

Q: What about the IC50 [2] of the same compound?
A: 28.4 µM

Q: What about the IC50 [3] of the same compound?
A: 47.5 µM

Q: What about the IC50 [4] of the same compound?
A: 21 µM

Q: What about the IC50 [5] of the same compound?
A: 45.9 µM

Q: What about the IC50 [6] of the same compound?
A: 30.9 µM

Q: What about the IC50 [7] of the same compound?
A: 38.7 µM

Q: What about the IC50 at 72 h [8] of the same compound?
A: 21.1 µM

Q: What about the IC50 at 72 h [9] of the same compound?
A: 37.4 µM

Q: For `c1c(CN2CC3CC3C2)c(-c2cc3ccc4c(c3cn2)OCO4)cc2c1OCO2` (configuration not stated), which IC50 [1] is on record?
A: 29.1 µM

Q: What about the IC50 [2] of the same compound?
A: 21.3 µM

Q: And the IC50 [3]?
A: 52.7 µM

Q: What about the IC50 [4] of the same compound?
A: 16.8 µM

Q: What about the IC50 [5] of the same compound?
A: 18.7 µM

Q: And the IC50 [6]?
A: > 100 µM

Q: What about the IC50 [7] of the same compound?
A: 38.9 µM

Q: And the IC50 at 72 h [8]?
A: 23.7 µM

Q: What about the IC50 at 72 h [9] of the same compound?
A: 26.8 µM

Q: Which results are given for `CC(C)(C)C(=O)C1CCN(Cc2cc3c(cc2-c2cc4ccc5c(c4cn2)OCO5)OCO3)CC1`?
A: IC50 [1]: > 100 µM; IC50 [2]: > 100 µM; IC50 [3]: > 100 µM; IC50 [4]: > 100 µM; IC50 [5]: 24.5 µM; IC50 [6]: > 100 µM; IC50 [7]: > 100 µM; IC50 at 72 h [8]: > 100 µM; IC50 at 72 h [9]: > 100 µM

Q: With `CCCC1CCN(Cc2cc3c(cc2-c2cc4ccc5c(c4cn2)OCO5)OCO3)CC1` as the compound, how does the IC50 [1] read?
A: > 100 µM

Q: And the IC50 [2]?
A: 28.2 µM

Q: What about the IC50 [3] of the same compound?
A: 64.1 µM

Q: What about the IC50 [4] of the same compound?
A: > 100 µM

Q: What about the IC50 [5] of the same compound?
A: 14.5 µM

Q: What about the IC50 [6] of the same compound?
A: 37 µM

Q: And the IC50 [7]?
A: 10.2 µM

Q: What about the IC50 at 72 h [8] of the same compound?
A: > 100 µM

Q: And the IC50 at 72 h [9]?
A: 84.2 µM

Q: Which results are given for `OCC1CN(Cc2cc3c(cc2-c2cc4ccc5c(c4cn2)OCO5)OCO3)C1`?
A: IC50 [1]: 80.3 µM; IC50 [2]: 63.4 µM; IC50 [3]: 79.5 µM; IC50 [4]: 61.4 µM; IC50 [5]: 60.7 µM; IC50 [6]: > 100 µM; IC50 [7]: 42.5 µM; IC50 at 72 h [8]: 23 µM; IC50 at 72 h [9]: > 100 µM

Q: With `CC(C)C1CCN(Cc2cc3c(cc2-c2cc4ccc5c(c4cn2)OCO5)OCO3)CC1` as the compound, how does the IC50 [1] read?
A: 1.7 µM

Q: What about the IC50 [2] of the same compound?
A: 8.17 µM

Q: And the IC50 [3]?
A: 6.92 µM

Q: And the IC50 [4]?
A: 2.21 µM

Q: What about the IC50 [5] of the same compound?
A: 2.65 µM

Q: And the IC50 [6]?
A: < 6.25 µM

Q: And the IC50 [7]?
A: 14.5 µM

Q: And the IC50 at 72 h [8]?
A: > 100 µM

Q: And the IC50 at 72 h [9]?
A: 18.2 µM

Q: For `CCC1CCCCN1Cc1cc2c(cc1-c1cc3ccc4c(c3cn1)OCO4)OCO2` (configuration not stated), which IC50 [1] is on record?
A: 15.9 µM

Q: What about the IC50 [2] of the same compound?
A: 20.8 µM

Q: What about the IC50 [3] of the same compound?
A: 25.4 µM

Q: And the IC50 [4]?
A: 13.4 µM

Q: What about the IC50 [5] of the same compound?
A: 16.9 µM

Q: And the IC50 [6]?
A: 33.1 µM

Q: What about the IC50 [7] of the same compound?
A: 17.1 µM

Q: What about the IC50 at 72 h [8] of the same compound?
A: 20.7 µM

Q: And the IC50 at 72 h [9]?
A: 22.6 µM

Q: What does the source list for `CC1CCN(Cc2cc3c(cc2-c2cc4ccc5c(c4cn2)OCO5)OCO3)CC1`?
A: IC50 [1]: 25.7 µM; IC50 [2]: 31.1 µM; IC50 [3]: 55.8 µM; IC50 [4]: 12.3 µM; IC50 [5]: 42.7 µM; IC50 [6]: 44.1 µM; IC50 [7]: 26.3 µM; IC50 at 72 h [8]: 23.7 µM; IC50 at 72 h [9]: 34.9 µM

Q: What does the source list for `CC(C)(O)C1CCN(Cc2cc3c(cc2-c2cc4ccc5c(c4cn2)OCO5)OCO3)CC1`?
A: IC50 [1]: 67.4 µM; IC50 [2]: 40.4 µM; IC50 [3]: 64.9 µM; IC50 [4]: 56.1 µM; IC50 [5]: 28.7 µM; IC50 [6]: > 100 µM; IC50 [7]: 53 µM; IC50 at 72 h [8]: 30.1 µM; IC50 at 72 h [9]: 38.2 µM

Q: With `c1c(CN2CCC(C3CC3)CC2)c(-c2cc3ccc4c(c3cn2)OCO4)cc2c1OCO2` as the compound, how does the IC50 [1] read?
A: > 100 µM

Q: What about the IC50 [2] of the same compound?
A: > 100 µM

Q: And the IC50 [3]?
A: > 100 µM

Q: And the IC50 [4]?
A: > 100 µM

Q: And the IC50 [5]?
A: 15.5 µM

Q: What about the IC50 [6] of the same compound?
A: 37.8 µM

Q: What about the IC50 [7] of the same compound?
A: > 100 µM

Q: What about the IC50 at 72 h [8] of the same compound?
A: > 100 µM

Q: What about the IC50 at 72 h [9] of the same compound?
A: 83.6 µM

Q: For `c1c(CN2CC3(CCCCC3)C2)c(-c2cc3ccc4c(c3cn2)OCO4)cc2c1OCO2`, which IC50 [1] is on record?
A: 12.4 µM

Q: And the IC50 [2]?
A: 23.6 µM

Q: And the IC50 [3]?
A: 31.8 µM

Q: What about the IC50 [4] of the same compound?
A: 12.9 µM

Q: And the IC50 [5]?
A: 13.8 µM

Q: And the IC50 [6]?
A: 15.5 µM

Q: And the IC50 [7]?
A: 30.6 µM

Q: What about the IC50 at 72 h [8] of the same compound?
A: 12.6 µM

Q: And the IC50 at 72 h [9]?
A: 41.5 µM
